Consider 1 compound from BindingDB's records for patent US20240101559 (Dana-Farber Cancer Institute, 2024).

The test has as its target Tyrosine-protein kinase JAK2 (Homo sapiens, UniProt O60674). As to the kind of experiment: JAK2 Z-Lyte Biochemical Assay. The procedure:
The JAK2 Z-Lyte biochemical assay was performed according to manufacturer's instructions (Life Technologies).

Sequence of Tyrosine-protein kinase JAK2 (O60674 whole entry): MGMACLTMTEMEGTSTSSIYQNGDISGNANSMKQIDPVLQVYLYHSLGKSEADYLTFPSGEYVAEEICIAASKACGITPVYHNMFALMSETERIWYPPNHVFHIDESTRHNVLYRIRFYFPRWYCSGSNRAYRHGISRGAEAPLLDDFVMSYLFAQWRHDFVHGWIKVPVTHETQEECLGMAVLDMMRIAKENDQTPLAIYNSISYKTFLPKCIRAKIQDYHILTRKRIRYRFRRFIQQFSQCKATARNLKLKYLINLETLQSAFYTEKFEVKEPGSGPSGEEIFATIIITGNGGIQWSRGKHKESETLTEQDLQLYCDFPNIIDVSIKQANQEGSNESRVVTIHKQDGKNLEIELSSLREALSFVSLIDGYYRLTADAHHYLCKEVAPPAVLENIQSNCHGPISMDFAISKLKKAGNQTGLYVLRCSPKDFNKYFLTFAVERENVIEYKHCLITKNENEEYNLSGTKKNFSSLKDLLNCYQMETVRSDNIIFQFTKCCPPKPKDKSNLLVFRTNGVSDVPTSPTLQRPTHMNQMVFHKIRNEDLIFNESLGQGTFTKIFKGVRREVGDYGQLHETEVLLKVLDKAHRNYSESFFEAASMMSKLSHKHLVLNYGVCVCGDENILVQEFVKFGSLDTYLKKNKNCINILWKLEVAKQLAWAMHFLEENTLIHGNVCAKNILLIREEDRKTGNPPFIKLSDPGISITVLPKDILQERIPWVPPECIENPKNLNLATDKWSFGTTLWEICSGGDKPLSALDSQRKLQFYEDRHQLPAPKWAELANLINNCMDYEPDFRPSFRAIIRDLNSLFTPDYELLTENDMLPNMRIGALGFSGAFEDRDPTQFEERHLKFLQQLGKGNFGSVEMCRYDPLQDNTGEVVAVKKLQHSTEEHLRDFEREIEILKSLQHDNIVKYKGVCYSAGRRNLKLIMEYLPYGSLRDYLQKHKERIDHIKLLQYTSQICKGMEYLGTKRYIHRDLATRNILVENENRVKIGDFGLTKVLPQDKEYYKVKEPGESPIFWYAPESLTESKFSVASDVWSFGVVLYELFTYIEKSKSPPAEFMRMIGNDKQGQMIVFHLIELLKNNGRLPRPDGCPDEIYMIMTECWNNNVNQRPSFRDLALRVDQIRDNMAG

`CC(=O)Nc1cc(Oc2ccc3nc(Nc4cccc(C(C)(C)C#N)c4)n4c3c2CCC4)ccn1` [US20240101559, Compound I-2] displayed a half-inhibitory concentration (IC50) of 4.07 µM.
